Data: ChEMBL document CHEMBL4402536, “Recent progress on anti-Toxoplasma drugs discovery: Design, synthesis and screening” (Eur J Med Chem, 2019)
Converted amounts (≈) assume the structure as drawn.

Key:
Toxoplasma gondii [1] = experiment: Antiparasitic activity against Toxoplasma gondii; format: functional, organism-based
Toxoplasma gondii [2] = experiment: Antiparasitic activity against Toxoplasma gondii infected in human HFF cells after 7 days by crystal violet assay; format: functional, organism-based; conditions: 168 h
Toxoplasma gondii [3] = experiment: Antiparasitic activity against Toxoplasma gondii RH infected in human HFF cells in presence of […] by radio-labelled assay; format: functional, organism-based
HFF = experiment: Cytotoxicity against human HFF cells assessed as reduction in cell viability; format: cell-based
[4] = Selectivity index, ratio of EC50 for human HFF cells to EC50 Toxoplasma gondii RH; format: functional
Toxoplasma gondii [5] = experiment: Antiparasitic activity against Toxoplasma gondii infected in human HFF cells after 4 hrs; format: functional, organism-based
Toxoplasma gondii [6] = experiment: Antiparasitic activity against Toxoplasma gondii infected in human HuH7 cells; format: functional, organism-based
Huh-7 = experiment: Cytotoxicity against human HuH7 cells assessed as reduction in cell viability; format: functional, cell-based
Toxoplasma gondii [7] = experiment: Antiparasitic activity against Toxoplasma gondii infected in human HFF cells after 4 hrs by CellTiter 96Aqueous One cell viability assay; format: functional, organism-based
Toxoplasma gondii [8] = experiment: Antiparasitic activity against Toxoplasma gondii infected in CF-1 mouse at 0.04 to 50 mg/kg, po after 48 hrs; format: functional
[9] = Therapeutic index, ratio of TD50 in CF-1 mouse to IC50 of Toxoplasma gondii infected in human HFF cells; format: toxicity, cell-based; conditions: read-out: TI
[10] = Inhibition of Toxoplasma gondii CDPK1
[11] = Half life of the compound; format: physicochemical

## O=C1CCCN[C@@H]1CCCn1cnc2ccccc2c1=O
Toxoplasma gondii [1]
  EC50: 8900 nM

## CCCOc1ccccc1-c1nc2[nH]nnc2c(=O)[nH]1 [ZAPRINAST]
Toxoplasma gondii [2]
  IC50: 60000 nM

## CC[C@]1(C)NC(=O)[C@H](CCCCCC(=O)[C@@H](C)OC(C)=O)NC(=O)[C@H]2C[C@H](C)CN2C(=O)[C@H](Cc2ccccc2)NC1=O
Toxoplasma gondii [3]
  EC50: 10.2 nM
HFF
  EC50: 632 nM
[4]
  Selectivity Index: 62

## CCOc1ccc(/C=C/c2nc(=O)c3ccccc3o2)cc1
Toxoplasma gondii [5]
  IC50: 270 nM

## CC(C)(C)C1=CC(=NNC(=O)c2ccncc2)C=C(C(C)(C)C)C1=O
Toxoplasma gondii [5]
  IC50: 2300 nM

## O=C(C[C@H]1NCCC[C@@H]1O)Cn1cnc2c(c1=O)CCCC2
Toxoplasma gondii [1]
  EC50: 880 nM

## C/C1=C\[C@H](C)C[C@H](C)OC(=O)C[C@H](c2ccc(O)cc2)NC(=O)[C@@H](Cc2c(Br)[nH]c3ccccc23)N(C)C(=O)[C@H](C)NC(=O)[C@@H](C)C1 [JASPAMIDE]
Toxoplasma gondii [2]
  EC50: 30 to 300 nM

## CC(C)c1n[nH]c2c(=O)[nH]c(Cc3ccccc3)nc12
Toxoplasma gondii [2]
  IC50: 2000 nM

## O=C1CN(CCCCCN2CCCCC2)c2ccc([N+](=O)[O-])cc2N1
Toxoplasma gondii [6]
  MIC50: 3.3 µM (≈ 1.14 µg/mL)

## O=c1c2ccccc2ncn1C[C@H](O)C[C@H]1NCCC[C@@H]1O
Toxoplasma gondii [1]
  EC50: 1900 nM

## CC(=O)[C@@H]1CC[C@]2(C)CC[C@]3(C)[C@H](CC[C@@H]4[C@@]5(C)CCC(=O)C(C)(C)[C@@H]5CC[C@]43C)[C@@H]12
Toxoplasma gondii [1]
  IC50: 24400 nM

## O=C1C=C/C(=N\Oc2ccc([N+](=O)[O-])cc2[N+](=O)[O-])c2cccnc21
Toxoplasma gondii [1]
  IC50: 1340 nM

## COc1ccc(OC)c(NCc2ccc3nc(N)nc(N)c3c2Cl)c1
Toxoplasma gondii [1]
  IC50: 20 nM

## CC[C@]1(C)NC(=O)[C@H](CCCCCC(=O)[C@@H](C)OC(=O)Oc2ccccc2)NC(=O)[C@H]2C[C@H](C)CN2C(=O)[C@H](Cc2ccccc2)NC1=O
Toxoplasma gondii [3]
  EC50: 11.3 nM
HFF
  EC50: 59.2 nM
[4]
  Selectivity Index: 47.7

## C=C(C)[C@H](CC=C(C)C)C[C@]12C[C@H](CC=C(C)C)C(C)(C)[C@](CC=C(C)C)(C(=O)C(C(=O)c3ccc(O)c(O)c3)=C1O)C2=O
Toxoplasma gondii [3]
  EC50: 1800 nM

## CC1(C)CC[C@]2(C(=O)O)CC[C@]3(C)C(=CC[C@@H]4[C@@]5(C)CC[C@H](O)C(C)(C)[C@@H]5CC[C@]43C)[C@@H]2C1 [OLEANOLIC_ACID]
Toxoplasma gondii [1]
  IC50: 54800 nM

## C[C@H]1[C@H](C)CC[C@]2(C(=O)O)CC[C@]3(C)C(=CC[C@@H]4[C@@]5(C)CC[C@H](O)C(C)(C)[C@@H]5CC[C@]43C)[C@H]12 [URSOLIC ACID]
Toxoplasma gondii [1]
  IC50: 5900 nM

## OCCCCCCC1COOC2(CCCCCCCCCCC2)OO1 (centres undefined)
Toxoplasma gondii [6]; Huh-7
  LC50: 1.11 µg/mL (≈ 3.1 µM)
Huh-7
  IC50: 310 µg/mL (≈ 865 µM)

## Cc1[nH]c2ccccc2c(=O)c1-c1ccc(Oc2ccc(OC(F)(F)F)cc2)cc1
Toxoplasma gondii [7]
  IC50: 1 nM
Toxoplasma gondii [8]
  ED50: 0.14 mg/kg
[9]
  selectivity ratio: 93500

## O=C(CC1NCCCC1O)Cn1cnc2cc(Br)c(Cl)cc2c1=O (centres undefined) [HALOFUGINONE]
Toxoplasma gondii [1]
  EC50: 1.4 nM

## CC(C)(C)c1cc(C2C(C#N)=C(N)OC3=C2C(=O)CCC3)cc(C(C)(C)C)c1O (centres undefined)
Toxoplasma gondii [5]
  IC50: 1300 nM

## C[C@H]1Cc2c([nH]c3cc(Cl)c(F)cc23)[C@@]2(N1)C(=O)Nc1ccc(Cl)cc12 [CIPARGAMIN]
Toxoplasma gondii [6]; Huh-7
  IC50: 1000 nM

## O=C(Nc1ccc([N+](=O)[O-])cc1Cl)c1cc(Cl)ccc1O [NICLOSAMIDE]
Toxoplasma gondii [1]
  EC50: 0.0453 µg/mL

## Cc1cccc(Cc2nn(C(C)(C)C)c3ncnc(N)c23)c1
[10]
  IC50: 3.99 nM
Toxoplasma gondii [1]
  EC50: 110 nM

## C=CC(C)(C)c1cc(/C=C/C(=O)c2ccc(O)cc2)c(OC)cc1O [LICOAGROCHACONE A]
Toxoplasma gondii [1]
  IC50: 0.848 µg/mL

## CC(C)(C)C1=CC(=NNC(=O)c2ccc([N+](=O)[O-])cc2)C=C(C(C)(C)C)C1=O
Toxoplasma gondii [5]
  IC50: 200 nM

## CC(C)(C)C1=CC(=NNc2ccc([N+](=O)[O-])cc2[N+](=O)[O-])C=C(C(C)(C)C)C1=O
Toxoplasma gondii [5]
  IC50: 130 nM

## CC(=O)O[C@H]1CC[C@]2(C)[C@H]3CC=C4[C@@H]5CC(C)(C)CC[C@]5(C(=O)O)CC[C@@]4(C)[C@]3(C)CC[C@H]2C1(C)C [ACETYL OLEANOLIC ACID]
Toxoplasma gondii [1]
  IC50: 6800 nM

## COc1cc2[nH]c(C)c(-c3ccc(Oc4ccc(OC(F)(F)F)cc4)cc3)c(=O)c2cc1F
Toxoplasma gondii [7]
  IC50: 0.007 nM
Toxoplasma gondii [8]
  ED50: 0.08 mg/kg
[9]
  selectivity ratio: > 7.1e+06

## C[C@H]1[C@H](C)CC[C@]2(C(=O)OCCn3cnnc3-c3ccccc3)CC[C@]3(C)C(=CC[C@@H]4[C@@]5(C)CC[C@H](O)C(C)(C)[C@@H]5CC[C@]43C)[C@H]12
Toxoplasma gondii [1]
  IC50: 128 µg/mL

## CC(=O)O[C@H]1CC[C@]2(C)[C@H]3CC=C4[C@@H]5[C@@H](C)[C@H](C)CC[C@]5(C(=O)O)CC[C@@]4(C)[C@]3(C)CC[C@H]2C1(C)C [O-ACETYLURSOLIC ACID]
Toxoplasma gondii [1]
  IC50: 7900 nM

## O=c1[nH]c2cc(Cl)ccc2n1C1CCN(CCCC(c2ccc(F)cc2)c2ccc(F)cc2)CC1 [CLOPIMOZIDE]
Toxoplasma gondii [1]
  IC50: 1800 nM

## CC(C)n1c(/C=N/Nc2nc3ccccc3[nH]2)nc2ccccc21
Toxoplasma gondii [1]
  IC50: 1360 nM

## CC(C)(C)[C@H]1CC[C@H](CC2=C(O)C(=O)c3ccccc3C2=O)CC1 [BUPARVAQUONE]
Toxoplasma gondii [1]
  IC50: 100 nM

## CC/C(=C(\c1ccccc1)c1ccc(OCCN(C)C)cc1)c1ccccc1 [TAMOXIFEN]
Toxoplasma gondii [1]
  IC50: 1900 nM

## Cc1coc2c1C(=O)C(=O)c1c-2ccc2c1CCCC2(C)C [TANSHINONE IIA]
Toxoplasma gondii [1]
  IC50: 2500 nM

## OCCOCCN1CCN(C(c2ccccc2)c2ccc(Cl)cc2)CC1 (centres undefined) [HYDROXYZINE]
Toxoplasma gondii [1]
  IC50: 1000 nM

## CCc1ccc(C(=O)NC(=O)c2ccccc2O)cc1
Toxoplasma gondii [1]
  IC50: 16 to 32 nM
[11]
  half-life: < 10 min

## Cc1[nH]c2cc(F)cc(F)c2c(=O)c1-c1ccc(Oc2ccc(OC(F)(F)F)cc2)cc1
Toxoplasma gondii [7]
  EC50: 5 nM

## O=C1C2=C(C(=O)c3ccccc31)[C@H]1Oc3ccc(Cl)cc3[C@H]1CO2
Toxoplasma gondii [1]
  IC50: < 1000 nM

## CCN(CC)c1ccc(C(=O)NC(=O)c2ccccc2O)cc1
Toxoplasma gondii [1]
  IC50: 8 nM
[11]
  half-life: 33 min

## O=c1[nH]ccc2nc(NC3CCCNC3)nc(Nc3ccc(S(=O)(=O)N4CCOCC4)cc3)c12 (centres undefined)
Toxoplasma gondii [1]
  IC50: < 500 nM
